Results: ChEMBL document CHEMBL3399976, “Dual inhibition of allosteric mitogen-activated protein kinase (MEK) and phosphatidylinositol 3-kinase (PI3K) oncogenic targets with a bifunctional inhibitor” (Bioorg Med Chem, 2015)
Blank lines part the entries; values can stand above or below the molecule they belong to. Active and inactive are the calls of the source. No cut-off for these calls is given here.

Experiments:
PANC-1 [1] = experiment: Inhibition of PI3K in human PANC1 cells assessed as reduction in pAkt level at 10 uM after 1 hr by Western blotting analysis; format: cell-based
A549 [2] = experiment: Inhibition of PI3K in human A549 cells assessed as reduction in pAkt level at 10 uM after 1 hr by Western blotting analysis; format: cell-based
Mus musculus [3] = species: Mus musculus; experiment: Inhibition of PI3K in mouse lung fibroblast assessed as reduction in pAkt level at 10 uM after 1 hr by Western blotting analysis
[4] = molecular target: Dual specificity mitogen-activated protein kinase kinase 1 (Mus musculus) (UniProt P31938); experiment: Inhibition of MEK1 in mouse lung fibroblast assessed as reduction in pErk1/2 level at 10 uM after 1 hr by Western blotting analysis
[5] = Inhibition of PI3K (unknown origin) by TR-FRET assay; set-up: species or system Homo sapiens
[6] = molecular target: Epidermal growth factor receptor (Homo sapiens, UniProt P00533); experiment: Inhibition of EGFR (unknown origin)
[7] = molecular target: Protein kinase C alpha type (Homo sapiens, UniProt P17252); experiment: Inhibition of PKC-alpha (unknown origin)
[8] = Inhibition of ERK (unknown origin); set-up: species or system Homo sapiens
Aurora kinase B = Aurora kinase B (Homo sapiens, UniProt Q96GD4); experiment: Inhibition of AurB (unknown origin)
PANC-1 [9] = experiment: Inhibition of PI3K in human PANC1 cells assessed as reduction in pAkt level after 1 hr by Western blotting analysis; format: cell-based
[10] = molecular target: T1, Dual specificity mitogen-activated protein kinase kinase 1 (Homo sapiens, UniProt Q02750); experiment: Inhibition of MEK1 in human PANC1 cells assessed as reduction in pErk1/2 level after 1 hr by Western blotting analysis; format: cell-based; conditions: PANC-1
PANC-1 [11] = experiment: Inhibition of PI3K in human PANC1 cells assessed as reduction in pAkt level at 25 uM after 1 hr by Western blotting analysis; format: cell-based
[12] = molecular target: T1, Dual specificity mitogen-activated protein kinase kinase 1; experiment: Inhibition of MEK1 in human PANC1 cells assessed as reduction in pErk1/2 level at 25 uM after 1 hr by Western blotting analysis; format: cell-based; conditions: PANC-1
A549 [13] = experiment: Inhibition of PI3K in human A549 cells assessed as reduction in pAkt level after 1 hr by Western blotting analysis; format: cell-based
[14] = molecular target: T1, Dual specificity mitogen-activated protein kinase kinase 1; experiment: Inhibition of MEK1 in human A549 cells assessed as reduction in pErk1/2 level after 1 hr by Western blotting analysis; format: cell-based
A549 [15] = experiment: Inhibition of PI3K in human A549 cells assessed as reduction in pAkt level at 25 uM after 1 hr by Western blotting analysis; format: cell-based
[16] = molecular target: T1, Dual specificity mitogen-activated protein kinase kinase 1; experiment: Inhibition of MEK1 in human A549 cells assessed as reduction in pErk1/2 level at 25 uM after 1 hr by Western blotting analysis; format: cell-based
Mus musculus [17] = species: Mus musculus; experiment: Inhibition of PI3K in mouse lung fibroblast assessed as reduction in pAkt level after 1 hr by Western blotting analysis
[18] = molecular target: Dual specificity mitogen-activated protein kinase kinase 1 (Mus musculus) (UniProt P31938); experiment: Inhibition of MEK1 in mouse lung fibroblast assessed as reduction in pErk1/2 level after 1 hr by Western blotting analysis
Mus musculus [19] = species: Mus musculus; experiment: Inhibition of PI3K in mouse lung fibroblast assessed as reduction in pAkt level at 25 uM after 1 hr by Western blotting analysis
[20] = molecular target: Dual specificity mitogen-activated protein kinase kinase 1 (Mus musculus) (UniProt P31938); experiment: Inhibition of MEK1 in mouse lung fibroblast assessed as reduction in pErk1/2 level at 25 uM after 1 hr by Western blotting analysis
[21] = Cytotoxicity against human PANC1 cells at 10 to 25 uM after 24 hrs by Alamar Blue assay; format: functional, PANC-1
A549 [22] = experiment: Cytotoxicity against human A549 cells at 10 to 25 uM after 24 hrs by Alamar Blue assay; format: functional
[23] = Cytotoxicity against mouse lung fibroblast at 10 to 25 uM after 24 hrs by Alamar Blue assay; format: cell-based

Dual specificity mitogen-activated protein kinase kinase 1 (Mus musculus), sequence (P31938 whole entry): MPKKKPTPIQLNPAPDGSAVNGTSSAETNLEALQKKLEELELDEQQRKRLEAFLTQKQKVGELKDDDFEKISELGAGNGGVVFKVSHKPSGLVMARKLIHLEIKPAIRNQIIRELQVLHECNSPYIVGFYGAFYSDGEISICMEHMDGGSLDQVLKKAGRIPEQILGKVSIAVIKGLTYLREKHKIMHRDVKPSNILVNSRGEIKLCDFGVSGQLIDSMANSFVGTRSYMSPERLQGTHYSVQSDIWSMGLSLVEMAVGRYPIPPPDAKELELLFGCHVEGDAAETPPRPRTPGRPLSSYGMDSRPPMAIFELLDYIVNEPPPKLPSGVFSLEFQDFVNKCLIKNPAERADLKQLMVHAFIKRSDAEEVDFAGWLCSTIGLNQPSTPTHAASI
T1 sequence (Q02750 whole entry): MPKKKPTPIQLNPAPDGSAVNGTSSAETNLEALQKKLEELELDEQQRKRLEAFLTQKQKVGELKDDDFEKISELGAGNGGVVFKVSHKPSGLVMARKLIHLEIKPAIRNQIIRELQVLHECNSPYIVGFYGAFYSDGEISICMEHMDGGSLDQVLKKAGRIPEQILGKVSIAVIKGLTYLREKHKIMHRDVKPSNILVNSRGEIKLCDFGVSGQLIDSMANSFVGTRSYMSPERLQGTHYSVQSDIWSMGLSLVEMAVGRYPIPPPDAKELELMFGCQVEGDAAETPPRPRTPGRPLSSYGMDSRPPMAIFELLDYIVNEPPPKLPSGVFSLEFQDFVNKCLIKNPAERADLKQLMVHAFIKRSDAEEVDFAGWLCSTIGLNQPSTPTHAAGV
Epidermal growth factor receptor, sequence (P00533 whole entry): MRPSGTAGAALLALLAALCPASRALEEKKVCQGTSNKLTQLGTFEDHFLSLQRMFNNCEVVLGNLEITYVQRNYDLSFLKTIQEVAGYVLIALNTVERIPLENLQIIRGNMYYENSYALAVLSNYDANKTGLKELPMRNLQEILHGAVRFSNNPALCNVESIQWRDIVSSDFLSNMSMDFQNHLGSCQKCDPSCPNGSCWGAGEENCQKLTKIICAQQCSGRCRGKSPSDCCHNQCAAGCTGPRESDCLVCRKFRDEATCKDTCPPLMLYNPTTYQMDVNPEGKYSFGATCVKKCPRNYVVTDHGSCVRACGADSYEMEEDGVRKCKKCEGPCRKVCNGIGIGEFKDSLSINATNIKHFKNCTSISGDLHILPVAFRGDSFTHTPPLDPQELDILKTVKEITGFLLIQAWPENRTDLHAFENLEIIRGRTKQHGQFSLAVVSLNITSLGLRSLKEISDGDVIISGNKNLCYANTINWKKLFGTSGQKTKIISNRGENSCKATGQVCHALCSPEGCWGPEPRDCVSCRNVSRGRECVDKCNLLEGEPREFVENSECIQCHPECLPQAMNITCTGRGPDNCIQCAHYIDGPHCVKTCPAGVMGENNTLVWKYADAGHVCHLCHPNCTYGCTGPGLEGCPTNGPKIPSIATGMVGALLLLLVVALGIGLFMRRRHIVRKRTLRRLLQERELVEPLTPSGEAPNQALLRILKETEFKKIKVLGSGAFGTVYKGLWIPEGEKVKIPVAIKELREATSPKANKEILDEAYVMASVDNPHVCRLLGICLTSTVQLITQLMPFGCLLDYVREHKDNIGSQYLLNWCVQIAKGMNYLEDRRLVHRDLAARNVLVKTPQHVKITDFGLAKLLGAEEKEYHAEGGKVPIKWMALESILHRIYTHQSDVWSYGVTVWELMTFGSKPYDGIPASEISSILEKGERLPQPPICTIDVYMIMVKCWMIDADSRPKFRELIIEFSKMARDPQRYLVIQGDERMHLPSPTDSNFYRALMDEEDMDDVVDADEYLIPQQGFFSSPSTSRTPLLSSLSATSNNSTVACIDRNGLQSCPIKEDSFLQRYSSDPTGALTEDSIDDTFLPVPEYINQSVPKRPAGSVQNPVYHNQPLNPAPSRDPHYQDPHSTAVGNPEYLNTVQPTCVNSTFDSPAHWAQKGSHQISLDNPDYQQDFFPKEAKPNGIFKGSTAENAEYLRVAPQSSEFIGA
Aurora kinase B, sequence (Q96GD4 whole entry): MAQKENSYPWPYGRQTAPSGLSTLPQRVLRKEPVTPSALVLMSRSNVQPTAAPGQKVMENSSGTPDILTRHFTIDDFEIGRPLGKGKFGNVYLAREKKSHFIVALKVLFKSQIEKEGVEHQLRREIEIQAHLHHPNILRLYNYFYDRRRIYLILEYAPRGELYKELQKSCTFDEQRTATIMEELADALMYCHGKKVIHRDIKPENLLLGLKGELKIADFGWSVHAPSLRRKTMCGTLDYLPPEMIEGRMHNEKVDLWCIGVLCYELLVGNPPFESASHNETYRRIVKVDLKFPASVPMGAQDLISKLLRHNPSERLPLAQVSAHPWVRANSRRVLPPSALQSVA

inhibition (Mus musculus [3]): Active
inhibition [4]: inactive
Compound: FC(F)c1nc2ccccc2n1-c1nc(N2CCOCC2)nc(N2CCOCC2)n1
inhibition (PANC-1 [1]): Active
inhibition (A549 [2]): Active

IC50 [5]: > 1 µM
Compound: O=C(CCCCC[N+](=O)[O-])N1CCN(c2nc(N3CCOCC3)nc(-n3c(C(F)F)nc4ccccc43)n2)CC1

inhibition (Mus musculus [3]): inactive
inhibition [4]: Active
Compound: O=C(NOC[C@H](O)CO)c1ccc(F)c(F)c1Nc1ccc(I)cc1F
inhibition (PANC-1 [1]): inactive
inhibition (A549 [2]): inactive

IC50 [5]: < 0.1 µM
Compound: NCCCCCC(=O)N1CCN(c2nc(N3CCOCC3)nc(-n3c(C(F)F)nc4ccccc43)n2)CC1

inhibition (Mus musculus [3]): inactive
inhibition [4]: Active
Compound: CNS(=O)(=O)Nc1nccc(Cc2c(C)c3ccc(Oc4ncccn4)cc3oc2=O)c1F
inhibition (PANC-1 [1]): inactive
inhibition (A549 [2]): inactive

Compound: Cc1c(Cc2cccc(N(C)S(=O)(=O)CCCNCCCCCC(=O)N3CCN(c4nc(N5CCOCC5)nc(-n5c(C(F)F)nc6ccccc65)n4)CC3)c2)c(=O)oc2cc(OC(=O)N(C)C)ccc12
IC50 [5]: 0.172 µM
IC50 [6]: > 10 µM
IC50 [7]: > 10 µM
IC50 [8]: > 10 µM
IC50 (Aurora kinase B): > 10 µM
inhibition (PANC-1 [9]): Dose-dependent effect
inhibition [10]: Dose-dependent effect
inhibition (PANC-1 [11]): Active
inhibition [12]: Active
inhibition (A549 [13]): Dose-dependent effect
inhibition [14]: Dose-dependent effect
inhibition (A549 [15]): Active
inhibition [16]: Active
inhibition (Mus musculus [17]): Dose-dependent effect
inhibition [18]: Dose-dependent effect
inhibition (Mus musculus [19]): Active
inhibition [20]: Active
Activity [21]: 50%
Activity (A549 [22]): 50%
Activity [23]: Non-toxic
